Laboratory results reported in the OligoGym collection.
After the bases stand the sugars from the 5' end (letter, count) and the backbone: PS all phosphorothioate, else s phosphorothioate and o phosphodiester by linkage. Methylation of C is not given here. e = 2'-O-(2-methoxyethyl) (MOE); k = constrained ethyl (cEt); d = 2'-deoxy (DNA); m = 2'-O-methyl

Biological target: HSD17B13
Conditions: ASO, HepaRG

| Sequence | target mRNA inhibition (1 µM) | also measured |
| --- | --- | --- |
| AAAAACTTCACCAACG (sugars k3 d10 k3, PS) | 8% | – |
| AAAAAGCTCTATTGGT (sugars k3 d10 k3, PS) | 0% | – |
| AAAAATCGCTGCTTAG (sugars k3 d10 k3, PS) | 25% | – |
| AAAAGGCCCAAGGCTT (sugars k3 d10 k3, PS) | 30% | – |
| AAAAGTGTCCTCGATC (sugars k3 d10 k3, PS) | 17% | – |
| AAAATATGTCCAGGTT (sugars k3 d10 k3, PS) | 74% | – |
| AAAAUAGAGTCGGTCA (sugars k3 d1 m1 d8 k3, PS) | 62% | – |
| AAAGACTTTGAGACTC (sugars k3 d1 m1 d8 k3, PS) | 76% | target mRNA inhibition (0.02 µM): 14%; target mRNA inhibition (0.078 µM): 28%; target mRNA inhibition (0.313 µM): 42%; target mRNA inhibition (1.25 µM): 66%; target mRNA inhibition (5 µM): 77% |
| AAAGGTGGGATAAACT (sugars k3 d10 k3, PS) | 33% | – |
| AAATAGAGTCGGTCAC (sugars k3 d9 k3 e1, PS) | 48% | – |
| AAATAGAGTCGGTCAC (sugars kkdddddddddkekek, PS) | 50% | – |
| AAATATGTCCAGGTTG (sugars kkdddddddddkekek, PS) | 61% | – |
| AAATCATGGTGTGGAG (sugars k3 d10 k3, PS) | 1% | – |
| AAATTATACTTTTCCG (sugars k3 d10 k3, PS) | 85% | target mRNA inhibition (0.02 µM): 0%; target mRNA inhibition (0.078 µM): 38%; target mRNA inhibition (0.313 µM): 66%; target mRNA inhibition (1.25 µM): 88%; target mRNA inhibition (5 µM): 92% |
| AAATTGATACACCAAT (sugars k3 d10 k3, PS) | 14% | – |
| AAATTGTCTAAACATC (sugars k3 d10 k3, PS) | 24% | – |
| AAATTTCAGTACCCAG (sugars k3 d10 k3, PS) | 46% | – |
| AACAACCCAGCCTCGG (sugars k3 d10 k3, PS) | 20% | – |
| AACAATATGGGATGAG (sugars k3 d10 k3, PS) | 39% | – |
| AACAGTCTTAAACCTT (sugars k3 d9 k3 e1, PS) | 57% | – |
| AACCAATATGCTCTGT (sugars k3 d10 k3, PS) | 51% | – |
| AACCCAGTATTCACAA (sugars k3 d10 k3, PS) | 0% | – |
| AACTAAACATGACAGC (sugars k3 d10 k3, PS) | 72% | target mRNA inhibition (0.02 µM): 8%; target mRNA inhibition (0.078 µM): 26%; target mRNA inhibition (0.313 µM): 40%; target mRNA inhibition (1.25 µM): 65%; target mRNA inhibition (5 µM): 85% |
| AACTAACCTGACACAT (sugars k3 d10 k3, PS) | 20% | – |
| AACTACTTCAGTTAGC (sugars k3 d10 k3, PS) | 53% | – |

| Sequence | target mRNA inhibition (1 µM) | also measured |
| --- | --- | --- |
| AACTGAAACGATCCTC (sugars k3 d10 k3, PS) | 52% | – |
| AACTTCATAGTGGACT (sugars k3 d9 k3 e1, PS) | 70% | – |
| AACTTCATAGTGGACT (sugars k3 d10 k3, PS) | 68% | – |
| AACTTTTAGTCAGGTA (sugars k3 d10 k3, PS) | 49% | – |
| AACTUCATAGTGGACT (sugars k3 d1 m1 d8 k3, PS) | 38% | – |
| AAGACATTCTAGCCTG (sugars k3 d1 m1 d8 k3, PS) | 54% | – |
| AAGACATTCTAGCCTG (sugars kkdddddddddkekek, PS) | 25% | – |
| AAGAGGCTAGGGAAAT (sugars k3 d10 k3, PS) | 66% | – |
| AAGAGTCAGTATCCTC (sugars k3 d10 k3, PS) | 63% | – |
| AAGATAAGTAGATGGT (sugars k3 d10 k3, PS) | 79% | target mRNA inhibition (0.02 µM): 7%; target mRNA inhibition (0.078 µM): 26%; target mRNA inhibition (0.313 µM): 58%; target mRNA inhibition (1.25 µM): 77%; target mRNA inhibition (5 µM): 89% |
| AAGATATTGATATACG (sugars k3 d10 k3, PS) | 45% | – |
| AAGAUACCCAGGTTGC (sugars k3 d1 m1 d8 k3, PS) | 37% | – |
| AAGCAGAATTGTGAAC (sugars k3 d10 k3, PS) | 18% | – |
| AAGGAGCTAGATACTC (sugars k3 d10 k3, PS) | 19% | – |
| AAGTAAGGTAAAGTCT (sugars k3 d10 k3, PS) | 20% | – |
| AAGTAGGAGTAGATGA (sugars k3 d10 k3, PS) | 0% | – |
| AAGTCCAGAATAGAGT (sugars k3 d10 k3, PS) | 60% | – |
| AAGTGCTTTTGTGATC (sugars k3 d10 k3, PS) | 41% | – |
| AAGTTAGCCCCCAGGA (sugars k3 d10 k3, PS) | 36% | – |
| AAGTUAGCCCCCAGGA (sugars k3 d1 m1 d8 k3, PS) | 0% | – |
| AATACATTAGCAAGCT (sugars k3 d10 k3, PS) | 45% | – |
| AATACCCTTGGTGGAG (sugars k3 d10 k3, PS) | 16% | – |
| AATAGAGTCGGTCACC (sugars k3 d10 k3, PS) | 58% | – |
| AATAGCCAGTACAGTT (sugars k3 d10 k3, PS) | 46% | – |
| AATAGCCAGTACAGTT (sugars kkdddddddddkekek, PS) | 36% | – |

| Sequence | target mRNA inhibition (1 µM) | also measured |
| --- | --- | --- |
| AATAGGAGAGTCTTTC (sugars k3 d10 k3, PS) | 47% | – |
| AATATAGAGGGTCCAC (sugars k3 d10 k3, PS) | 7% | – |
| AATATATACCTGTTGC (sugars k3 d10 k3, PS) | 38% | – |
| AATATGGGATGAGGTA (sugars kkdddddddddkekek, PS) | 52% | – |
| AATAUGGGATGAGGTA (sugars k3 d1 m1 d8 k3, PS) | 38% | – |
| AATAUTGAGGCACTGG (sugars k3 d1 m1 d8 k3, PS) | 48% | – |
| AATCACAAGTAAGGTA (sugars k3 d1 m1 d8 k3, PS) | 31% | – |
| AATCACAAGTAAGGTA (sugars k3 d9 k3 e1, PS) | 63% | – |
| AATCACAAGTAAGGTA (sugars k3 d10 k3, PS) | 52% | – |
| AATCATGGTGTGGAGG (sugars k3 d10 k3, PS) | 11% | – |
| AATCCCAACCAAACTT (sugars k3 d9 k3 e1, PS) | 13% | – |
| AATTAACATTCGGCTA (sugars k3 d10 k3, PS) | 38% | – |
| AATTATACTTTTCCGT (sugars k3 d10 k3, PS) | 66% | – |
| AATTATGCCTTGTGGC (sugars k3 d10 k3, PS) | 19% | – |
| AATTCACTATCTCCCT (sugars k3 d10 k3, PS) | 10% | – |
| AATTCTAAACTAGTGG (sugars k3 d10 k3, PS) | 31% | – |
| AATTTTCGGGTTCTTA (sugars k3 d10 k3, PS) | 35% | – |
| ACAAAATCATGGTGTG (sugars k3 d10 k3, PS) | 26% | – |
| ACAAGAGTTCTTGCAG (sugars k3 d10 k3, PS) | 29% | – |
| ACAAGTGACAGCATTG (sugars k3 d10 k3, PS) | 44% | – |
| ACAATATGGGATGAGG (sugars kkdddddddddkekek, PS) | 51% | – |
| ACAATTAACATTCGGC (sugars k3 d10 k3, PS) | 77% | target mRNA inhibition (0.02 µM): 13%; target mRNA inhibition (0.078 µM): 15%; target mRNA inhibition (0.313 µM): 43%; target mRNA inhibition (1.25 µM): 62%; target mRNA inhibition (5 µM): 79% |
| ACAATTTTTCCAATCC (sugars k3 d10 k3, PS) | 86% | target mRNA inhibition (0.02 µM): 9%; target mRNA inhibition (0.078 µM): 37%; target mRNA inhibition (0.313 µM): 62%; target mRNA inhibition (1.25 µM): 76%; target mRNA inhibition (5 µM): 93% |
| ACACCGCGCTTATTAA (sugars k3 d10 k3, PS) | 7% | – |
| ACACTAATATTGAGGC (sugars kkdddddddddkekek, PS) | 55% | – |

| Sequence | target mRNA inhibition (1 µM) | also measured |
| --- | --- | --- |
| ACAGATTGGAATGCTA (sugars kkdddddddddkekek, PS) | 49% | – |
| ACAGTAAAATTATGCC (sugars k3 d10 k3, PS) | 73% | target mRNA inhibition (0.02 µM): 0%; target mRNA inhibition (0.078 µM): 0%; target mRNA inhibition (0.313 µM): 4%; target mRNA inhibition (1.25 µM): 50%; target mRNA inhibition (5 µM): 68% |
| ACATCTCTGGGACCAA (sugars k3 d1 m1 d8 k3, PS) | 68% | – |
| ACATCTCTGGGACCAA (sugars k3 d9 k3 e1, PS) | 65% | – |
| ACATCTCTGGGACCAA (sugars k3 d10 k3, PS) | 78% | – |
| ACATTAGCAAGCTAAG (sugars k3 d9 k3 e1, PS) | 41% | – |
| ACATTAGCAAGCTAAG (sugars kkdddddddddkekek, PS) | 23% | – |
| ACCAAACTTCCAGCAG (sugars k3 d10 k3, PS) | 31% | – |
| ACCAAGAGACACCACC (sugars k3 d10 k3, PS) | 41% | – |
| ACCAAGGCCATGACAT (sugars k3 d10 k3, PS) | 17% | – |
| ACCAAGTAGCTTACAT (sugars k3 d10 k3, PS) | 2% | – |
| ACCAATCCTCAGCTTT (sugars k3 d10 k3, PS) | 11% | – |
| ACCCATTCTAACTTGA (sugars k3 d10 k3, PS) | 0% | – |
| ACCCGCCCTTAAGTCA (sugars k3 d10 k3, PS) | 48% | – |
| ACCGTTTTGGGCTAAT (sugars k3 d9 k3 e1, PS) | 73% | – |
| ACCTTGAATGAGTGGT (sugars k3 d10 k3, PS) | 26% | – |
| ACTAATATTGAGGCAC (sugars k3 d10 k3, PS) | 19% | – |
| ACTAATATTGAGGCAC (sugars kkdddddddddkekek, PS) | 27% | – |
| ACTACAAGAGGTTATT (sugars k3 d9 k3 e1, PS) | 58% | – |
| ACTAGGAAGTGATCCA (sugars k3 d10 k3, PS) | 58% | – |
| ACTCCCCAAACATGGA (sugars k3 d10 k3, PS) | 48% | – |
| ACTGAAGGTCTGAGCT (sugars k3 d10 k3, PS) | 20% | – |
| ACTGAGTAAACGACTC (sugars k3 d10 k3, PS) | 45% | – |
